From patent US20250109143A1, “KLF2 INDUCING DEUTERATED COMPOUNDS AND USES THEREOF” (Riparian Pharmaceuticals, Inc., priority 2023, published 2025)

Tests used:
[1] = tested on: primary human endothelial cells expressing luciferase under the control of the KLF2 promoter; assay: KLF2 induction cell based bioassay (GLuc KLF2 concentration response, luciferase reporter); details: 24 hours incubation, 11-point concentration response; for IC50: 24 h, read-out: GLuc KLF2 Conc Response (IC50) Avg; for EC50: EC50 = concentration where normalized curve passes 0.5, read-out: GLuc KLF2 Conc Response (EC50) Ave
Source text: In endothelial cell culture media, a stock of the highest working concentration was made at no more than 1% DMSO vehicle. The working stock was then serially diluted 1:2 to make an 11-point concentration response curve. Included in the 96-well plate were 2 reference compounds with known potencies. A DMSO column was included in the 96-well plate at the highest percent vehicle of the working stocks. The 96-well cell culture plate of primary human endothelial cells expressing luciferase under the control of the KLF2 promoter was dosed with 200 μL per well of the dilution series as well as the DMSO control column. The assay plate was incubated at 37° C. for 24 hours. The supernatant was collected at 24 hours.
20 μL of the supernatant was then placed in a 384-well plate with optical duplicates. The corners of the plate received 20 μL of the Gaussia Luciferase Enzyme positive control, as well as 20 μL of the 50 μM Coelenterizine substrate. The plate read is then calibrated using the control, and read using a Molecular Devices SpectraMax iD5, providing luminescence in relative light units (RLU). The plate reader injected 20 μL of the 50 μM Coelenterazine substrate immediately before taking the RLU measurement for each well.
The sample signals were then normalized to the average signal of the DMSO column, as well as to the maximum signal of one of the reference compounds, as shown in the equations below: […]
The EC50 of each compound is then defined as when the concentration response curve passes 0.5.

KLF2 = assay: qPCR KLF2 concentration response; assay type: cell-based; details: read-out: qPCR KLF2 Conc Response (EC50)

IC50 [1] [nM] | EC50 (KLF2) [nM] | SMILES | EC50 [1] [nM]
200 | 10 | COc1ccccc1CNC(=O)C1(C)COc2c(oc3ccccc23)C(=O)N1CC1(F)CCC1 (centres unmarked) [Example 2] | 20
150 | – | C#CCCN1C(=O)c2oc3ccccc3c2OCC1(C)C(=O)NCc1ccccc1OC (centres unmarked) [Example 5] | 40
340 | 10 | COc1ccccc1CNC(=O)C1(C)COc2c(oc3ccccc23)C(=O)N1CC(C)(C)OC (centres unmarked) [Example 3] | 60
70 | 10 | C#CCCN1C(=O)c2oc3ccccc3c2OC[C@]1(C)C(=O)NCc1ccccc1OC [Example 6] | 20
